Laboratory results: patent US20230248772A1, “PRODUCTS AND METHODS USING A PLATELET-DERIVED HEMOSTATIC AGENT FOR CONTROLLING BLEEDING AND IMPROVING HEALING” (Cellphire, Inc., priority 2015, published 2023)
Positions of bridges follow the written chain, without caps; N, C: chain ends. Non-standard residues stand in square brackets, D forms with d. Residues, ends and D or L forms follow the SMILES beside them. hArg = N=C(N)NCCCC[C@H](N)C(=O)O; Mpa = O=C(O)CCS

What was measured:
platelets = test: Transmission light aggregometry, collagen-induced platelet aggregation in PRP; format: cell-based; details: collagen 10 µg/mL, all concentrations tested, FIG. 1
Source text: Plasma samples with platelet or thrombosomes or combination of both are loaded into cuvettes and placed into the aggregometry chambers. The chambers warm the sample and provide constant stirring. The initiation of aggregation can be done by multiple types of […] agents not limited to thrombin, ADP, collagen and any agent known to stimulate platelet aggregation. The samples can also have been taken as ex-vivo, or in-vitro supplemented with inhibitors. The instrument begins the assay by first recording the light transmission previous to stimulation for 2 minutes. The stimulant of interest is then introduced by the technician and the change in light transmission is recorded over time. The increase in light transmission corresponds to increase in platelet aggregation.
The aggregation of platelets (in platelet rich plasma) was evaluated using transmission light aggregometry. […] (FIG. 1).

whole blood = test: T-TAS AR chip occlusion of whole blood under shear; format: cell-based
Source text: (§1) Evaluation by T-TAS® using an AR chip. AR chips are characterized by a single channel containing collagen and tissue factor; they can be used to analyze clotting and platelet function.

platelet rich plasma = test: T-TAS flow system occlusion of platelet rich plasma (collagen and tissue factor coated channel); format: cell-based; details: untreated 18.43
Source text: as §1

[1] = cited from earlier work
NOD/SCID mice = test: Tail-snip bleed model in clopidogrel-treated mice; format: in vivo, mouse; details: ~3 times the clinical dose of clopidogrel for 5 days; untreated 9 minutes
Experimental: The mouse was treated with clopidogrel for 5 days. The mouse was anesthetized, the tail end was snipped off followed by thrombosomes being immediately administered. The time from tail snip to tail stop bleeding was recorded by visual inspection.
NOD/SCID mice were treated with ~ 3 times the clinical dose of clopidogrel for 5 days then assessed in the tail-snip bleed model. The bleed time (min) was extended to 17.8 minutes with clopidogrel treatment verses untreated at 9 minutes (data not shown).

thrombin = test: Thrombin generation in plasma; format: biochemical, human; details: PPP from patients taking baby aspirin daily; normal range about 66-166 nM; FIG. 18
Experimental: Reagent Preparation. For thrombin generation, the following materials were used from manufacturers, as follows: FluCa Kit (Diagnostica Stago, Cat. No. 86197), Thrombin calibrator (Diagnostica Stago, Cat. No. 86197), PRP Reagent (Diagnostica Stago, Cat. No. 86196), OCTOPLAS®, a solvent detergent treated human pooled plasma (Octapharma, Cat. No. 8-68209-952-04). All frozen reagents were thawed in a 37° C. water bath before use. All reagents were rehydrated with sterile water using the volume printed on the reagent labels. Approximately 2 min after rehydration, the reagents were mixed by inverting vials 5 times, so no chunks or powder left; vortexing was not used. […]
Sample Analysis - Plate preparation and testing. For experiments containing thrombosomes, a thrombosomes dilution series was generated (dilutions of 194.4 K, 64.8 K, 21.6 K, and 7.2 K per µL were typically used; cell counts are determined by flow cytometry) for each the experimental thrombosomes and the reference thrombosomes. […] The plate was then incubated in the Fluoroskan Ascent 96 well fluorescent plate reader (Thrombinoscope) (ThermoFisher Scientific) for 10 minutes. […] The plate fluorescence was monitored for 75 minutes at an interval of 20 seconds and a temperature of 40-41° C.
The effect of aspirin treatment (concentration) on thrombin generation was measured. […]

N=C(N)NCCCC[C@@H]1NC(=O)CCSSC[C@@H](C(N)=O)NC(=O)[C@@H]2CCCN2C(=O)[C@H](Cc2c[nH]c3ccccc23)NC(=O)[C@H](CC(=O)O)NC(=O)CNC1=O [eptifibatide] ([Mpa][hArg]GDWPC-NH2; disulfide 1-7)
collagen-induced platelet aggregation (platelets): completely inhibited | occlusion time of whole blood on T-TAS AR Chip (whole blood; 6 µM eptifibatide, untreated whole blood occluded at 8 minutes, FIG. 2): 16 min | effect on occlusion time of whole blood on T-TAS AR Chip (whole blood; eptifibatide at various concentrations): dose-dependent manner | occlusion time of platelet rich plasma (platelet rich plasma; 9 µM eptifibatide, FIGS. 10A, 10B): over 30 minutes | blood concentration ([1]; IV 180 µg/kg bolus followed by 2 µg/kg/min continuous infusion, typical): 1 to 2 µM | time for bleeding time to return to normal after drug stoppage ([1]; generally): ≤ 1 h

CCCCS(=O)(=O)N[C@@H](Cc1ccc(OCCCCC2CCNCC2)cc1)C(=O)O [tirofiban]
occlusion time of platelet rich plasma (platelet rich plasma; 100 ng/mL tirofiban, FIGS. 9A, 9B): no occlusion

COC(=O)[C@H](c1ccccc1Cl)N1CCc2sccc2C1 [clopidogrel]
bleed time (NOD/SCID mice): 17.8 min

CC(=O)Oc1ccccc1C(=O)O [aspirin]
peak thrombin of aspirin plasma in absence of thrombosomes (thrombin): about 45 nM
